The values that follow come from US8975406B2, “Compound useful for the treatment of degenerative and inflammatory diseases” (Galapagos N.V., priority 2011, dated 2015).

The structures appear in SMILES notation.

For one experiment, the target named is T1, Recombinant human JAK1 (Homo sapiens, UniProt P23458).
T1 construct: catalytic domain (amino acids 866-1154; catalog number PV4774); purchased Invitrogen PV4774
The experiment can be described thus: JAK1 Ulight-JAK1 peptide assay. Conditions: Ulight-JAK1(tyr1023) peptide, 7 μM ATP. The format is biochemical. On the procedure: Recombinant human JAK1 (catalytic domain, amino acids 866-1154; catalog number PV4774) was purchased from Invitrogen. 1 ng of JAK1 was incubated with 20 nM Ulight-JAK1(tyr1023) peptide (Perkin Elmer catalog number TRF0121) in kinase reaction buffer (25 mM MOPS pH6.8, 0.01% Brij-35, 5 mM MgCl2, 2 mM DTT, 7 μM ATP) with or without 4 μL containing test compound or vehicle (DMSO, 1% final concentration), in a total volume of 20 μL, in a white 384 Opti plate (Perkin Elmer, catalog number 6007290). After 60 min at room temperature, reactions were stopped by adding 20 μL/well of detection mixture (1× detection buffer (Perkin Elmer, catalog number CR97-100C), 0.5 nM Europium-anti-phosphotyrosine (PT66) (Perkin Elmer, catalog number AD0068), 10 mM EDTA). Readout is performed using the Envision with excitation at 320 nm and measuring emission at 615 nm (Perkin Elmer). Kinase activity was calculated by subtracting relative fluorescence units (RFU) obtained in the presence of a positive control inhibitor (10 μM staurosporine) from RFU obtained in the presence of vehicle. The ability of a test compound to inhibit this activity was determined as: Percentage inhibition=((RFU determined for sample with test compound present−RFU determined for sample with positive control inhibitor)divided by(RFU determined in the presence of vehicle−RFU determined for sample with positive control inhibitor))*100.
Dose dilution series were prepared for the compounds enabling the testing of dose-response effects in the JAK1 assay and the calculation of the IC50 for the compound. Each compound is routinely tested at concentration of 20 μM followed by a ⅕ serial dilution, 10 points in a final concentration of 1% DMSO. When potency of compound series increases, more dilutions are prepared and/or the top concentration are lowered (e.g. 5 μM, 1 μM). The data are expressed as the average IC50 from the assays±standard error of the mean.

The target of experiment [1] is T2, Recombinant human JAK3 catalytic domain (Homo sapiens, UniProt P52333).
T2 construct: catalytic domain (amino acids 795-1124; catalog number 08-046); purchased Carna Biosciences 08-046
The experiment can be described thus: JAK3 inhibition assay. The experiment is classed as biochemical. The conditions noted are these: polyGT substrate, 33P-gamma-ATP filter assay, 1 μM ATP. On the procedure:
Recombinant human JAK3 catalytic domain (amino acids 795-1124; catalog number 08-046) was purchased from Carna Biosciences. 0.5 ng JAK3 protein was incubated with 2.5 μg polyGT substrate (Sigma catalog number P0275) in kinase reaction buffer (25 mM Tris pH 7.5, 0.5 mM EGTA, 10 mM MgCl2, 2.5 mM DTT, 0.5 mM Na3VO4, 5 mM b-glycerolphosphate, 0.01% Triton X-100, 1 μM non-radioactive ATP, 0.25 μCi ^33P-gamma-ATP (Perkin Elmer, catalog number NEG602K001MC) final concentrations) with or without 5 μL containing test compound or vehicle (DMSO, 1% final concentration), in a total volume of 25 μL, in a polypropylene 96-well plate (Greiner, V-bottom). After 45 min at 30° C., reactions were stopped by adding 25 μL/well of 150 mM phosphoric acid. All of the terminated kinase reaction was transferred to prewashed (75 mM phosphoric acid) 96 well filter plates (Perkin Elmer catalog number 6005177) using a cell harvester (Perkin Elmer). Plates were washed 6 times with 300 μL per well of a 75 mM phosphoric acid solution and the bottom of the plates was sealed. 40 μL/well of Microscint-20 was added, the top of the plates was sealed and readout was performed using the Topcount (Perkin Elmer). Kinase activity was calculated by subtracting counts per min (cpm) obtained in the presence of a positive control inhibitor (10 μM staurosporine) from cpm obtained in the presence of vehicle. The ability of a test compound to inhibit this activity was determined as: Percentage inhibition=((cpm determined for sample with test compound present−cpm determined for sample with positive control inhibitor)divided by(cpm determined in the presence of vehicle−cpm determined for sample with positive control inhibitor))*100.
Dose dilution series were prepared for the compounds enabling the testing of dose-response effects in the JAK3 assay and the calculation of the IC50 for each compound. Each compound was routinely tested at concentration of 20 μM followed by a ⅕ serial dilution, 10 points in a final concentration of 1% DMSO. When potency of compound series increased, more dilutions were prepared and/or the top concentration was lowered (e.g. 5 μM, 1 μM).

As usually defined, the IC50 is the point on the concentration scale where inhibition reaches its midpoint.

T1 sequence (P23458 866-1154): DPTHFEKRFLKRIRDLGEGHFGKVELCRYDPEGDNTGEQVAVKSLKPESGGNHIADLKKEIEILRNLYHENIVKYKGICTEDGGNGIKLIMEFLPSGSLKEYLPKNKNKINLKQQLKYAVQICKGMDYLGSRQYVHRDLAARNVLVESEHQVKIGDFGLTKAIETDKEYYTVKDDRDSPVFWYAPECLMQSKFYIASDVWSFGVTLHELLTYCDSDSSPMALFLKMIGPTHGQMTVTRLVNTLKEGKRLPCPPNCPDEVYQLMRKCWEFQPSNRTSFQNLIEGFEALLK
T2 sequence (P52333 795-1124): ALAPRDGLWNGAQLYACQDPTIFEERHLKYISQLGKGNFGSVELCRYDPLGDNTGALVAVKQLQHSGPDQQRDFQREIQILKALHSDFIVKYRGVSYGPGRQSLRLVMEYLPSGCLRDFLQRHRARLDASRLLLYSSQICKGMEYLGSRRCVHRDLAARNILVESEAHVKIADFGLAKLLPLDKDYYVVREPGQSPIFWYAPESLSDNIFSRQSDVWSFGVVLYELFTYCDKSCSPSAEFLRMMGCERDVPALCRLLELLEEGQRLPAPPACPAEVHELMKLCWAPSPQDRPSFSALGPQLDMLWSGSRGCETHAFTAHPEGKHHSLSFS

With `CC(=O)Nc1cc2c(-c3ccc(C(C)N4CCN(S(C)(=O)=O)CC4)cc3)cccn2n1` (stereo not shown) [Compound 45, N-(4-(4-(1-(4-(methylsulfonyl)piperazin-1-yl)ethyl)phenyl)pyrazolo[1,5-a]pyridin-2-yl)acetamide], the 50% inhibitory concentration (IC50) on Recombinant human JAK1 lay in the range of 0.01 to 100 nM; in experiment [1], 101 to 500 nM.
On the same counts, the results for `CC(=O)Nc1cc2c(-c3ccc(CC(=O)N4COCC4(C)C)cc3)cccn2n1` [Compound 38, N-(4-(4-(2-(4,4-dimethyloxazolidin-3-yl)-2-oxoethyl)phenyl)pyrazolo[1,5-a]pyridin-2-yl)acetamide] are 101 to 500 nM and 501 to 1000 nM.
On the same counts, the results for `O=C(Nc1cc2c(-c3ccc(OCc4ccccc4)cc3)cccn2n1)C1CC1` [Compound 2, N-(4-(4-(benzyloxy)phenyl)pyrazolo[1,5-a]pyridin-2-yl)cyclopropanecarboxamide] are 101 to 500 nM and 0.01 to 100 nM.
As to `CC(=O)Nc1cc2c(-c3ccc(CC(=O)N4CC(F)(F)C4)cc3)cccn2n1` [Compound 34, N-(4-(4-(2-(3,3-difluoroazetidin-1-yl)-2-oxoethyl)phenyl)pyrazolo[1,5-a]pyridin-2-yl)acetamide], the IC50 on Recombinant human JAK1 lay within 0.01 to 100 nM; in experiment [1] it was 101 to 500 nM.
For the compound `CC(=O)Nc1cc2c(-c3ccc(CN4CCN(S(C)(=O)=O)CC4)cc3)cccn2n1` [Compound 25, N-(4-(4-((4-(methylsulfonyl)piperazin-1-yl)methyl)phenyl)pyrazolo[1,5-a]pyridin-2-yl)acetamide], the IC50 is 0.01 to 100 nM on Recombinant human JAK1 and 101 to 500 nM in experiment [1].
In the case of `COc1ccc(-c2cccn3nc(NC(=O)C4CC4)cc23)cc1` [Compound 1, N-(4-(4-methoxyphenyl)pyrazolo[1,5-a]pyridin-2-yl)cyclopropanecarboxamide], the IC50 (on Recombinant human JAK1; in experiment [1]) was 0.01 to 100 nM each time.
With `CC(=O)Nc1cc2c(-c3ccc(CN4CCC(S(C)(=O)=O)CC4)c(F)c3)cccn2n1` [Compound 29, N-(4-(3-fluoro-4((4-(methylsulfonyl)piperidin-1-yl)methyl)phenyl)pyrazolo[1,5-a]pyridin-2-yl)acetamide], the IC50 fell in the range of 0.01 to 100 nM on Recombinant human JAK1 and 101 to 500 nM in experiment [1].
For the compound `CC(=O)Nc1cc2c(-c3ccc(CN4CCN(S(C)(=O)=O)C[C@H]4C)cc3)cccn2n1` [Compound 24, (R)-N-(4-(4-((2-methyl-4-(methylsulfonyl)piperazin-1-yl)methyl)phenyl)pyrazolo[1,5-a]pyridin-2-yl)acetamide], the 50% inhibitory concentration (IC50) was in the range of 0.01 to 100 nM on Recombinant human JAK1 and 501 to 1000 nM in experiment [1].
`CS(=O)(=O)N1CC[C@@H](Oc2ccc(-c3cccn4nc(NC(=O)C5CC5)cc34)cc2)C1` [Compound 49, (R)-N-(4-(4-(1-(methylsulfonyl)pyrrolidin-3-yloxy)phenyl)pyrazolo[1,5-a]pyridin-2-yl)cyclopropanecarboxamide]: the IC50 (at Recombinant human JAK1; in experiment [1]) was 0.01 to 100 nM throughout.
As to `C[C@H](c1ccc(-c2cccn3nc(NC(=O)C4CC4)cc23)cc1)N1CCN(S(C)(=O)=O)CC1` [Compound 46, (R)-N-(4-(4-(1-(4-(methylsulfonyl)piperazin-1-yl)ethyl)phenyl)pyrazolo[1,5-a]pyridin-2-yl)cyclopropanecarboxamide], the IC50 (on Recombinant human JAK1; in experiment [1]) was 0.01 to 100 nM throughout.
As for `O=C(NCCOc1ccccc1)c1ccc(-c2cccn3nc(NC(=O)C4CC4)cc23)cc1` [Compound 6, 4-(2-(cyclopropanecarboxamido)pyrazolo[1,5-a]pyridin-4-yl)-N-(2-phenoxyethyl)benzamide], the IC50 (on Recombinant human JAK1; in experiment [1]) was 0.01 to 100 nM in each case.
As to `CS(=O)(=O)C1CCN(Cc2ccc(-c3cccn4nc(NC(=O)C5CC5)cc34)cc2)CC1` [Compound 17, N-(4-(4-((4-(methylsulfonyl)piperidin-1-yl)methyl)phenyl)pyrazolo[1,5-a]pyridin-2-yl)cyclopropanecarboxamide], the half-maximal inhibitory concentration (IC50) at Recombinant human JAK1 was 0.01 to 100 nM; in experiment [1] it was 101 to 500 nM.
With `CC(=O)Nc1cc2c(-c3ccc(CN4CCN(CC(F)(F)F)CC4)c(F)c3)cccn2n1` [Compound 28, N-(4-(3-fluoro-4-((4-(2,2,2-trifluoroethyl)piperazin-1-yl)methyl)phenyl)pyrazolo[1,5-a]pyridin-2-yl)acetamide], the IC50 was 0.01 to 100 nM at Recombinant human JAK1 and 101 to 500 nM in experiment [1].
On the same counts, the results for `O=C(Nc1nn2cccc(-c3ccc(CN4CCS(=O)(=O)CC4)cc3)c2c1Br)C1CC1` [Compound 12, Cyclopropanecarboxylic acid {4-[4-(1,1-dioxo-thiomorpholin-4-ylmethyl)-phenyl]-3-bromo-pyrazolo[1,5-a]pyridin-2-yl}-amide] are 0.01 to 100 nM and 101 to 500 nM.
Turning to `CC(=O)Nc1cc2c(-c3ccc(CN4CCN(S(C)(=O)=O)CC4)c(F)c3)cccn2n1` [Compound 21], the IC50 was 0.01 to 100 nM at Recombinant human JAK1 and 101 to 500 nM in experiment [1].
As for `C[C@@H](c1ccc(-c2cccn3nc(NC(=O)C4CC4)cc23)cc1)N1CCN(S(C)(=O)=O)CC1` [Compound 47, (S)-N-(4-(4-(1-(4-(methylsulfonyl)piperazin-1-yl)ethyl)phenyl)pyrazolo[1,5-a]pyridin-2-yl)cyclopropanecarboxamide], the half-inhibitory concentration (IC50) (on Recombinant human JAK1; in experiment [1]) was 0.01 to 100 nM throughout.
`CS(=O)(=O)C1CCN(Cc2ccc(-c3cccn4nc(NC(=O)C5CC5)c(Cl)c34)cc2)CC1` [Compound 19, N-(3-chloro-4-(4-((4-(methylsulfonyl)piperidin-1-yl)methyl)phenyl)pyrazolo[1,5-a]pyridin-2-yl)cyclopropanecarboxamide]: the concentration for half-maximal inhibition (IC50) at Recombinant human JAK1 is 0.01 to 100 nM; in experiment [1] it was more than 1000 nM.
With `C[C@@H]1CN(S(C)(=O)=O)CCN1Cc1ccc(-c2cccn3nc(NC(=O)C4CC4)cc23)cc1` [Compound 44, (R)-N-(4-(4-((2-methyl-4-(methylsulfonyl)piperazin-1-yl)methyl)phenyl)pyrazolo[1,5-a]pyridin-2-yl)cyclopropanecarboxamide], the concentration for half-maximal inhibition (IC50) (at Recombinant human JAK1; in experiment [1]) was 0.01 to 100 nM in each case.
Turning to `COc1ccc(-c2cccn3nc(NC(=O)C4CC4)c(-c4ccccc4)c23)cc1` [Compound 7, N-(4-(4-methoxyphenyl)-3-phenylpyrazolo[1,5-a]pyridin-2-yl)cyclopropanecarboxamide], the IC50 (at Recombinant human JAK1; in experiment [1]) was more than 1000 nM each time.
Take `CC(c1ccc(-c2cccn3nc(NC(=O)C4CC4)cc23)cc1)N1CCN(S(C)(=O)=O)CC1` (stereo not shown) [Compound 43, N-(4-(4-(1-(4-(methylsulfonyl)piperazin-1-yl)ethyl)phenyl)pyrazolo[1,5-a]pyridin-2-yl)cyclopropanecarboxamide]: the IC50 (at Recombinant human JAK1; in experiment [1]) was 0.01 to 100 nM each time.
Regarding `N#Cc1ccc(COc2ccc(-c3cccn4nc(NC(=O)C5CC5)cc34)cc2)cn1` [Compound 9, N-(4-(4-((6-cyanopyridin-3-yl)methoxy)phenyl)pyrazolo[1,5-a]pyridin-2-yl)cyclopropanecarboxamide], the IC50 (on Recombinant human JAK1; in experiment [1]) was 0.01 to 100 nM throughout.
Consider `O=C(Nc1cc2c(-c3ccc(OCc4cccnc4)cc3)cccn2n1)C1CC1` [Compound 8, N-(4-(4-(pyridin-3-ylmethoxy)phenyl)pyrazolo[1,5-a]pyridin-2-yl)cyclopropanecarboxamide], for which the IC50 in experiment [1] lay within 101 to 500 nM.
